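1) Cells in 96-well plates. 2) Compound, 48 h, 5 concentrations. 3) Linear interpolation between surrounding doses. 4) Unreached endpoint = highest concentration. GI50 is the concentration that inhibits growth by half.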 Activity calls are given as the source filed them. No stated cut-off is given here; in the data, active = GI50 up to about 1.1 µM and inactive = higher.
What was measured:
Test in all cases: inhibition of tumour cell growth, NCI panel, 48 h
MDA-N = test system: MDA-N
NCI/ADR-RES = test system: NCI/ADR-RES
DLD-1 = test system: DLD-1
DMS-273 = test system: DMS-273
XF498 = test system: XF498
HOP-18 = test system: HOP-18
LXFL 529 = test system: LXFL 529
SNB-78 = test system: SNB-78

## C[N+]1([O-])C2CCC1CC(OC(=O)C(CO)c1ccccc1)C2 (centres undefined)
MDA-N
  GI50: > 100 µM (inactive)
NCI/ADR-RES
  GI50: > 33.4 µM (inactive)

## Cc1nc2ccccc2c(=O)n1NC(=O)c1ccccc1[N+](=O)[O-]
NCI/ADR-RES
  GI50: > 100 µM (inactive)

## Cc1c(C(=O)O)n(C)c(=O)n(C)c1=O
DLD-1
  GI50: > 100 µM (inactive)
DMS-273
  GI50: > 100 µM (inactive)
XF498
  GI50: > 100 µM (inactive)
HOP-18
  GI50: > 100 µM (inactive)
LXFL 529
  GI50: > 100 µM (inactive)

## COc1ccc(-c2ccccc2)c2[nH]c3c(c12)CCNC3=O
DLD-1
  GI50: > 100 µM (inactive)
DMS-273
  GI50: > 100 µM (inactive)
LXFL 529
  GI50: > 100 µM (inactive)
SNB-78
  GI50: > 100 µM (inactive)

## Clc1ccc2nc3c(c(-c4ccccc4)nn3-c3ccccc3)c(-c3ccccc3)c2c1
MDA-N
  GI50: > 100 µM (inactive)
NCI/ADR-RES
  GI50: > 100 µM (inactive)

## COc1ccccc1CCc1cc(OC)c(OC)c(OC)c1
DLD-1
  GI50: 61.5 µM (inactive)
DMS-273
  GI50: 39.6 µM (inactive)
XF498
  GI50: 35.9 µM (inactive)
HOP-18
  GI50: > 100 µM (inactive)
LXFL 529
  GI50: 28.4 µM (inactive)
SNB-78
  GI50: 43 µM (inactive)

## CC(C)(C)OC(=O)N1C(OP(=O)(Oc2ccccc2)Oc2ccccc2)=CSc2ccccc21
MDA-N
  GI50: 34 µM (inactive)
NCI/ADR-RES
  GI50: 43.2 µM (inactive)

## CN(C)CCCOc1nc2c(c(=O)n(C)c(=O)n2C)n1C.SC1=NC=NC2=NC=NC12
NCI/ADR-RES
  GI50: 4.32 µM (inactive)

## [N-]=[N+]=Nc1ccc(NCCCCCC(=O)ON2C(=O)CCC2=O)c([N+](=O)[O-])c1
NCI/ADR-RES
  GI50: 31.1 µM (inactive)

## COC(=O)C1=C(OC(=O)/C(=C/c2ccccc2)c2ccccc2)C(C(=O)OC)[C@@]2(O)[C@@H](C(=O)OC)[C@H](C)C[C@@H]1[C@@H]2C(=O)OC (some centres undefined)
NCI/ADR-RES
  GI50: > 100 µM (inactive)

## CCOC(=O)c1c(N)sc2c1C(C(=O)OCC)CC2 (centres undefined)
MDA-N
  GI50: > 100 µM (inactive)

## C/C(=N/S(=O)(=O)c1ccc(Cl)c(Cl)c1)OCC(C)(C)C
MDA-N
  GI50: > 100 µM (inactive)
NCI/ADR-RES
  GI50: > 100 µM (inactive)

## O=C1CC2C=CC1C2CO (centres undefined)
DLD-1
  GI50: > 100 µM (inactive)
DMS-273
  GI50: > 100 µM (inactive)
HOP-18
  GI50: > 100 µM (inactive)
LXFL 529
  GI50: > 100 µM (inactive)
SNB-78
  GI50: > 100 µM (inactive)

## Cc1coc2c1C(=O)C(=O)c1c-2ccc2c1CCCC2(C)C [TANSHINONE IIA]
MDA-N
  GI50: 1.37 µM (inactive)
NCI/ADR-RES
  GI50: 4.58 µM (inactive)

## CC[C@]1(Cc2ccc(OC)c(OC)c2)C=[N+]([O-])O[C@H](OC2CCCC2(c2ccccc2)c2ccccc2)[C@@H]1OC(C)=O (some centres undefined)
NCI/ADR-RES
  GI50: 2.59 µM (inactive)

## C/C(=N\Nc1nc2ccccc2s1)c1ccncn1
MDA-N
  GI50: 9.44 µM (inactive)
NCI/ADR-RES
  GI50: 0.351 µM (active)

## COc1ccc(-c2cc(O)c3cc4c(cc3n2)OCO4)cc1OC
DLD-1
  GI50: > 100 µM (inactive)
DMS-273
  GI50: > 100 µM (inactive)
XF498
  GI50: > 100 µM (inactive)
HOP-18
  GI50: > 100 µM (inactive)
LXFL 529
  GI50: > 100 µM (inactive)
SNB-78
  GI50: > 100 µM (inactive)

## COc1cc2c(cc1O)[C@H](C)C(c1ccc(OC)c(OC)c1)O2 (some centres undefined)
DLD-1
  GI50: 8.11 µM (inactive)
DMS-273
  GI50: 3.84 µM (inactive)
XF498
  GI50: 10.1 µM (inactive)
HOP-18
  GI50: 4.36 µM (inactive)
LXFL 529
  GI50: 9.35 µM (inactive)
SNB-78
  GI50: 17.3 µM (inactive)

## COc1ccc(NC(=O)CSc2nnc(-c3ccc(NC(C)=O)cc3)o2)cc1
DLD-1
  GI50: 19.3 µM (inactive)
DMS-273
  GI50: 19.3 µM (inactive)
HOP-18
  GI50: 19.9 µM (inactive)
LXFL 529
  GI50: 13.6 µM (inactive)
SNB-78
  GI50: 13.8 µM (inactive)

## CCc1[nH]nc(C(N)=O)c1/N=N/N(C)C
MDA-N
  GI50: > 100 µM (inactive)
NCI/ADR-RES
  GI50: 94.8 µM (inactive)

## O=C1Cc2c(-c3cccs3)cc(-c3ccccc3)nc2-c2ccccc2N1
MDA-N
  GI50: 21.8 µM (inactive)
NCI/ADR-RES
  GI50: 18.5 µM (inactive)

## COc1cccc2c1C(=O)c1c(O)c3c(c(O)c1C2=O)C[C@@](O)(C(=O)CO)C[C@@H]3OC1CC2C(OCN3CN2COC2C(C)OC(O[C@H]4C[C@](O)(C(=O)CO)Cc5c(O)c6c(c(O)c54)C(=O)c4c(OC)cccc4C6=O)CC23)C(C)O1 (some centres undefined)
MDA-N
  GI50: 0.0923 µM (active)
NCI/ADR-RES
  GI50: 0.251 µM (active)

## COC(=O)c1c2c(cc3c1CC1(Cc4cc5c(c(C(C)=O)c4C1)CCC5)C3)CCC2 (centres undefined)
DLD-1
  GI50: > 100 µM (inactive)
DMS-273
  GI50: 29.9 µM (inactive)
XF498
  GI50: 31.3 µM (inactive)
HOP-18
  GI50: > 100 µM (inactive)
LXFL 529
  GI50: 64.3 µM (inactive)
SNB-78
  GI50: > 100 µM (inactive)

## O=C(NCCCCN(CCCNC(=O)C(F)(F)F)Cc1ccc2ccccc2c1)C(F)(F)F
MDA-N
  GI50: 17.4 µM (inactive)
NCI/ADR-RES
  GI50: 14.5 µM (inactive)

## CC(C)SC(NC(=O)C1C(C)(C)CCC1(C)C)C(=O)O (centres undefined)
MDA-N
  GI50: > 100 µM (inactive)
NCI/ADR-RES
  GI50: > 100 µM (inactive)

## O=C1OCC(c2ccc(Cl)cc2)=C1Cl
NCI/ADR-RES
  GI50: 26.9 µM (inactive)

## CC(C)(C)OC(=O)C1CC[C@@H](CC(=O)Oc2ccc([N+](=O)[O-])cc2)N1 (some centres undefined)
MDA-N
  GI50: > 100 µM (inactive)
NCI/ADR-RES
  GI50: > 100 µM (inactive)

## CCn1c(SCC(=O)NNC(=S)Nc2ccc(F)cc2)nc2ccccc2c1=O
MDA-N
  GI50: > 100 µM (inactive)
NCI/ADR-RES
  GI50: > 100 µM (inactive)

## c1ccc2c(c1)ccc1cc3cc(NCCCCNc4ccc5nc6c(ccc7ccccc76)cc5c4)ccc3nc12
NCI/ADR-RES
  GI50: 2.11 µM (inactive)

## COc1ccc2c(c1)C(=O)CC(N)C2 (centres undefined)
MDA-N
  GI50: > 100 µM (inactive)
NCI/ADR-RES
  GI50: > 100 µM (inactive)

## COc1cc2cccc(NC(=O)c3cc(OC)c(OC)c(OC)c3Br)c2cc1OC
DLD-1
  GI50: 24.8 µM (inactive)
XF498
  GI50: 2.4 µM (inactive)
HOP-18
  GI50: 20.6 µM (inactive)
LXFL 529
  GI50: 2.52 µM (inactive)
SNB-78
  GI50: 17.1 µM (inactive)

From ChEMBL document CHEMBL1201862, “PubChem BioAssay data set” (2004)
